Experimental data published in patent US7572831B2, “Composition containing chalcone” (Angiolab, Inc., priority 2002, dated 2009).

Assays:
MMP-9 = molecular target: T1, MMP-9 (Homo sapiens, UniProt P14780); assay: MMP-9 spectrofluorometric enzyme activity assay; type: biochemical; details: 50 μM compound; read-out: MMP-9 activity inhibited
T1 construct: made in house; host or cells: Sf21 insect cells, baculovirus (pBlueBac4.5)
Method: MMP-1, MMP-2, MMP-9 and MMP-13 were cloned and prepared from insect cells (Sf21 insect cell) by using a Baculovirus system.
Each cDNA for corresponding MMPs was cloned to a pBlueBac4.5 transfer vector (Invitrogen, Cat no. V1995-20), and then transfected to Sf21 cells with a Bac-N-Blue Transfection Kit (Invitrogen, Cat no. K855-01). Sf21 cells were incubated with a TNM-FH (Sigma, St. Louis, Mo., U.S.A) media containing 10% fetal bovine serum at 27° C., then harvested and re-suspended at a concentration of 10^7 cell/Ml. The cell suspension was incubated with a virus containing the cloned gene for 1 hr at room temperature. Infected Sf21 cells were grown for 72 hrs and the medium was recovered, and the MMP was purified. MMP-2 (GENEBANK No. XM—048244) and MMP-9 (GENEBANK No. XM—009491) were recovered from a gelatin-sepharose affinity column (Sigma, G5384) by eluting with 5% DMSO-containing buffer. […]
As a control, 2 Ml of reaction buffer (50 mM Tricine, pH 7.5, 10 mM CaCl2, 200 mM NaCl) comprising DMSO, 10 nM of enzyme and 10 μM of substrate was prepared in a cuvette. Fluorescence intensity was measured for 5-10 min at room temperature with a spectrofluorometer.
50 μM Chalcone or its derivatives were added to a reaction buffer containing a substrate and enzyme, and fluorescence intensity was measured in the same manner.

[1] = test system: human umbilical vein endothelial cells (HUVECs); assay: Tube formation of HUVEC on Matrigel; type: cell-based; details: 50 μM, 8-16 hrs
Excerpt: The effect of chalcone or its derivatives on human endothelial cells was investigated to evaluate the biological effect of chalcones as MMP inhibitors. Since MMPs are responsible for the degradation of extracellular matrix, chalcone or its derivatives can inhibit the formation of tubular network of vessel, which represent migration and differentiation of endothelial cell. Blood vessel endothelial cells, human umbilical vein endothelial cells (HUVECs), were isolated from freshly obtained cords after cesarean section according to Grants' method (Grants D. S., et al., Cell, 58, pp933-943, 1989). They were identified by immunocytochemical staining with anti-Factor VIII antibody. HUVECs cultured on Matrigel (BD Bioscience, Bedford, Mass., USA) were treated with 50 μM of chalcone or its derivatives, and further incubated at 37° C. for 8-16 hrs. As a control, the procedure was repeated with the solvent of the above compounds.

[2] = test system: experimentally induced comedones; assay: Comedolysis by EIC (experimentally induced comedones) formation; type: in vivo, New Zealand white rabbits; details: topical once a day, 3 weeks
Excerpt: Effects of chalcone on comedolysis were studied using subjects of ten mature New Zealand white rabbits, which were bred to approximately 2 kg of body weight for several weeks. In order to generate EIC, 50% oleic acid in polyethylene glycol was applied to both ears of rabbits for 2 weeks. The experimental agent was applied to the ventral surface near the auditory canal once a day with the tip of a cotton stick. 18 ears of rabbits were divided into three groups, and only one of ethanol-propylene glycol (1:1) (control), 1% chalcone in ethanol-propylene glycol (1:1), or 5% chalcone in ethanol-propylene glycol (1:1) was applied on each groups for 3 weeks. The remaining 2 ears were left untreated. Biopsy specimens were taken at 3 week by punch and specimens were fixed in 10% formalin solution and embedded in paraffin for light microscopic examination. Sections of 5 μm thickness were cut and hematoxylin and eosin stain were performed. Under light microscope, fairly large comedones were formed showing hyperplasia and hyperkeratosis of epithelium in specimen treated with vehicle only. The formation of comedones decreased in specimen treated with 1% or 5% of chalcone.

[3] = test system: UVB-induced wrinkle formation; assay: Skin photoaging, UVB-induced wrinkle formation; type: in vivo, albino hairless HOS:HR1 mice; details: topical, 15 week
Excerpt: Effects of chalcone on skin photoaging were studied using mouse skin wrinkle induced by UV irradiation. 6-week male albino hairless HOS:HR1 mice were used for wrinkle formation induced by long-term repeated UVB irradiation. Wrinkles were formed according to the modified method described by Bissett et al (Photochem Photobiol 46: 367-378, 1987) The dose was set at 60 mJ per cm^2 for 4 weeks and increased to 120 mJ per cm^2 for 11 weeks. The frequency of irradiation was set at three times per week. In this protocol, wrinkles began to be observed macroscopically in the dorsal region from about 8 week after initiation of irradiation, and deep wrinkles were formed at 12 week. 30 hairless mice were divided into three groups, and only one of ethanol-propylene glycol (7:3) (control), 1% chalcone in ethanol-propylene glycol (7:3), or 5% chalcone in ethanol-propylene glycol (7:3) was applied on each groups for 15 weeks. 100 μl of the experimental agent was applied to the dorsal region three times weekly just after UVB exposure. At 15 week after initiation of repeated UVB irradiation, each hairless mouse was anesthetized, and the degree of wrinkle formation was evaluated according to Table 3. […] [table]

[4] = Skin sensitization by human patch test; type: in vivo; details: interpretation of skin average reactivity
Method: The effect of chalcone on skin sensitization was studied by general method of skin patch test. The skin patch test was done against human subjects of ten adults. Test patch (2 cm×2 cm) included 0.2 ml of cream containing 0.01%-1.0% chalcone. The patches were applied to the backs of subjects. The patch was removed after 48 hours or 96 hours, and the skin responses of subjects were recorded and evaluated as shown in Table 4. The skin average reactivity calculated by equation 1 was interpreted as the degree of skin sensitivity in Table 5. According to the skin patch test, chalcone was nonreactive to skin sensitization (Table 6).

TPA-induced ear edema = TPA-induced ear edema model; type: in vivo, ICR mouse; details: FIG. 7

T1 sequence (P14780 107-707 limits assumed): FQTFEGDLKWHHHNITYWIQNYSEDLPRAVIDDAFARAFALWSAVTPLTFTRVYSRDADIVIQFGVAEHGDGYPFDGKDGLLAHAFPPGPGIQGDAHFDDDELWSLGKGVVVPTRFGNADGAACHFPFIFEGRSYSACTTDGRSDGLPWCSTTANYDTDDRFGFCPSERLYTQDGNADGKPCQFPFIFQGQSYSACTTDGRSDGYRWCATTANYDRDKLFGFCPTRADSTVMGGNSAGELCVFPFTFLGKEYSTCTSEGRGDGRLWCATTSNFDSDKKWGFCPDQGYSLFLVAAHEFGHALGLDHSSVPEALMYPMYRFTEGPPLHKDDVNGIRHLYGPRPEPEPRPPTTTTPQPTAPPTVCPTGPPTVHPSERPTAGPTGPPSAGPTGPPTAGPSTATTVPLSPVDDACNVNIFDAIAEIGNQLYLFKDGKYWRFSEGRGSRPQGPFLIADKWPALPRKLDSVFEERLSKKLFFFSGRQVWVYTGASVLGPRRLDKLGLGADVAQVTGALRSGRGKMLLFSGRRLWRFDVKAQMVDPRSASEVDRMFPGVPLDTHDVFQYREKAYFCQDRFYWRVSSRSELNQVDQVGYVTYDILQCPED

inhibition at 50 µM (MMP-9): ~76%
SMILES: O=C(/C=C/c1ccccc1)c1ccccc1 [Chalcone]
Tubular (microvascular) network formation of HUVEC [1]: microvascular network was disconnected | Formation of comedones ([2]; 1% chalcone in ethanol-propylene glycol (1:1)): decreased | Formation of comedones ([2]; 5% chalcone in ethanol-propylene glycol (1:1)): decreased | UVB-induced wrinkle formation vs vehicle-treated group ([3]; 1% chalcone in ethanol-propylene glycol (7:3)): significantly inhibited | UVB-induced wrinkle formation vs vehicle-treated group ([3]; 5% chalcone in ethanol-propylene glycol (7:3)): significantly inhibited | Result of skin patch test (degree of skin sensitivity) [4]: nonreactive (0.0-0.9) | Dose dependence of anti-inflammatory activity (TPA-induced ear edema): dose dependent
